Data reported in patent US7754911B2, “Method for isolating methyl glycine nitrile-N,N-diacetonitriles from an aqueous crude mixture” (BASF Aktiengesellschaft, priority 2005, dated 2010).

Experiment: solubility of MGDN in water (temperature-dependent)
Assay type: physicochemical
Experimental: MGDN has highly temperature-dependent solubility in water. For instance, only about 0.5% by weight of MGDN dissolves at 10° C. in water or an aqueous ammonium sulfate solution. At approx. 60° C., the solubility is still about 5% by weight. Above approx. 60° C., an emulsion of MGDN and its aqueous solution with more than 5% by weight of dissolved MGDN is present. No phase diagram of the water-MGDN system is known.
The MGDN concentration of the aqueous crude product mixture is generally from 3 to 50% by weight, preferably from 15 to 40% by weight, more preferably from 20 to 35% by weight. A content of dissolved MGDN of 1% by weight corresponds to a crystallization temperature of approx. 20° C., a content of dissolved MCDN of 5% by weight to a crystallization temperature of approx. 55° C. At 10° C., the water solubility of MGDN is still about 0.5% by weight.

water solubility (at 10° C.): about 0.5 % by weight | solubility (at 10° C. in water or an aqueous ammonium sulfate solution): about 0.5 % by weight | solubility (at approx. 60° C., in water): about 5 % by weight | content of dissolved MGDN (corresponds to a crystallization temperature of approx. 20° C.): 1 % by weight | content of dissolved MGDN (corresponds to a crystallization temperature of approx. 55° C.): 5 % by weight
Structure (SMILES): CC(C#N)N(CC#N)CC#N (centres unmarked) [MGDN, methylglycinenitrile-N,N-diacetonitrile]
